Patent publication US5846755A (priority 1995, dated 1998)

Key:
[1] = tested on: blood cells that migrate to the inflamed site (lymphocytes, neutrophils, eosinophils, macrophages); experiment: Hypereosinophilia induced in rats by Sephadex G-200 resin; assay type: in vivo; conditions: hypereosinophilia induced by Sephadex G-200 resin, result in words
Description: As the metalloproteinases produced by the cells of mammals are of fundamental importance to allow the cells to migrate from one tissue to another within the organism, Compounds 9, 18, 25 and 31 of the present invention, together with the compounds Z--Pro--Leu--Cyt and FUR--Leu--Cyt (Examples 1 and 8, respectively, of WO 92/06018) were tested on hypereosinophilia induced in rats by Sephadex G-200 resin.

[2] = tested on: release of active TNF in human cell culture medium (Jurkat); experiment: Release of active TNF from Jurkat cells (ELISA); assay type: cell-based; conditions: 72 hours incubation, stimulated with PMA and ionophore calcium
Description: It is well known that TNF plays a fundamental role in certain physiological defense responses but, on the other hand, causes severe damage when it is released into circulation in excessive amounts or for prolonged periods. […] An attempt was, therefore, made to see whether certain compounds selected from among those of the present application and of WO 92/06108 were capable of blocking the release of active TNF in human cell culture medium (Jurkat). The cells were incubated in the presence or in the absence of metalloproteinase inhibitor for 72 hours; the release of TNF was then stimulated using activators (PMA and ionophore calcium), and the Factor was dosed into the culture medium using the ELISA test (Genzyme).

[3] = molecular target: neutrophil collagenase (recombinant human) (Homo sapiens, UniProt P22894); experiment: In vitro assays on recombinant human collagenase; assay type: biochemical
Description: Using the same enzymatic determination already described (fluorimetric detection of cleavage of a substrate peptide containing a fluorescent moiety), some of the compounds were tested on neutrophil collagenase, an enzyme described as participating in any kind of inflammatory reaction in mammalian bodies. In this case, the purified enxzyme was also obtained by recombinant means.

[4] = molecular target: enzyme purified from the venom of Crotalus Adamanteus (hemorrhagin) (Crotalus adamanteus, UniProt P34179); assay type: biochemical; conditions: for IC50: read-out: IC50
[5] = molecular target: T1, recombinant human gelatinase A (Homo sapiens, UniProt P08253); experiment: In vitro effects on recombinant human gelatinase A; assay type: biochemical
T1 construct: purchased Strangeways Laboratories, Cambridge, UK
T1 sequence (P08253 110-660): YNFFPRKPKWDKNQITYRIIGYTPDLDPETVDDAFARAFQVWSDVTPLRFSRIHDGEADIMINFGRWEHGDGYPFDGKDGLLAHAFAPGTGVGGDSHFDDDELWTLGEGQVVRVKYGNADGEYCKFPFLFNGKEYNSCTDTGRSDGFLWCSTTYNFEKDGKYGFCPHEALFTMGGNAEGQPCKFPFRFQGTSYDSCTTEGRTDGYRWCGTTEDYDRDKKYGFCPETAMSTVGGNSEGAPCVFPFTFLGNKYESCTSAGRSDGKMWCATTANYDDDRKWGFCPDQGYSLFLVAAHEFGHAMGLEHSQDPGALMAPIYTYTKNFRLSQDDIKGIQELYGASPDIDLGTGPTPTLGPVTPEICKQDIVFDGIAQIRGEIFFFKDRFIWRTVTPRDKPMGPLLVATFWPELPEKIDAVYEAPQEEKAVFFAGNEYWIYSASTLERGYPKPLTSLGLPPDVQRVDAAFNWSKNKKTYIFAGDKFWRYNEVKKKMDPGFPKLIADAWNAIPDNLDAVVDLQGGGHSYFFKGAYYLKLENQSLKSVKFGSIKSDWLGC
From the text: Assays on human gelatinase A, an enzyme released in high concentration by any kind of tumor cells during the process of metastatization, and recognized also as a product of stimulated cells in many pathological processes, have been performed using the protein obtained by recombinant biotechnology (Strangeways Laboratories, Cambridge, UK). The enzymatic activity has been followed over time, measuring the amount of fluorescent substrate cleaved by the enzyme, in the presence or absence of synthetic compounds (Perkin Elmer L50 B fluorimeter).

[6] = tested on: hemorrhages and lethal results induced by snake venom; experiment: Inhibition of hemorrhages and lethality induced by snake venom in mice; assay type: in vivo
[7] = molecular target: T2, recombinant human gelatinase B (Homo sapiens, UniProt P14780); experiment: In vitro effects on recombinant human gelatinase B; assay type: biochemical
T2 construct: purchased Stangeways Laboratories, Cambridge, UK (so in the source)
Description: Assays on human gelatinase B, another enzyme released by tumor cells, were performed using also, in this case, the protein obtained by recombinant biotechnology Stangeways Laboratories, Cambridge, UK). As usual, the enzymatic activity was followed over time, measuring the amount of fluorescent substrate cleaved by the enzyme, in the presence or absence of synthetic compounds (Perkin Elmer L50 B fluorimeter).

[8] = tested on: human melanoma cell line VMM-5; experiment: Matrigel-based invasion assay with human melanoma cells; assay type: cell-based; conditions: Concentration 500 micro M, VMM-5 cells, 20 hours
From the text: In order to obtain information about the possible interference of the synthesized compounds on the ability of tumor cells to migrate through the body (metastatization), the human melanoma cell line VMM-5 was used in the matrigel-based invasion assay, in which basal membrane matrigel (Becton Dickinson) and tissue culture inserts with 8 microns pore size in 24 well tissue culture plates were used as Boyden chambers. The chambers were coated with diluted matrigel and allowed to dry overnight; they were then reconstituted with serum free medium, and melanoma cells (4,000,000/ml) were dispensed in each insert. In the lower chambers, a chemoattractant was included. The chambers were finally placed in a humidified CO2 incubator at 37° C., and incubated for 20 hours. The inserts were dried and the cells on the upper surface removed. The polycarbonate filters were fixed with methanol, stained with hematoxylin and eosin, and counted with a microscope. Inhibition of migration due to compounds has been expressed as a percentage of the total number of migrated cells in the control chambers containing only the buffer in which the compounds were dissolved.

[9] = Resistance to proteolytic activity in stomach juices (rat stomach homogenate, HPLC); conditions: 37° C.
Description: To check if the compounds of the present invention are resistant to proteolytic activity in stomach juices and, therefore, could be administered orally, the stomachs of fasting rats were homogenized in physiological solutions (1:1). 300 microliters of solutions of the compounds (1 mg/ml of saline) were incubated with 0.5 ml of stomach homogenates (37° C.).

[10] = molecular target: metalloproteinase purified from snake venom, Echis Carinatus; experiment: Inhibition of metalloproteinase purified from Echis Carinatus venom; assay type: biochemical; conditions: Table 5; unit M
[11] = molecular target: metalloproteinase purified from snake venom, Bothrops Atrox; experiment: Inhibition of metalloproteinase purified from Bothrops Atrox venom; assay type: biochemical; conditions: Table 5; unit M
[12] = molecular target: metalloproteinase purified from snake venom, Bothrops Jararaca; experiment: Inhibition of metalloproteinase purified from Bothrops Jararaca venom; assay type: biochemical; conditions: Table 5; unit M
[13] = tested on: TNF release from another strain of human cells in culture (clone T); experiment: TNF release from human cells in culture (clone T); assay type: cell-based
[14] = tested on: microhemorrhages induced by histamine; experiment: Histamine-induced microhemorrhages (capillary permeability) in hamsters; assay type: in vivo

T2 sequence (P14780 94-707): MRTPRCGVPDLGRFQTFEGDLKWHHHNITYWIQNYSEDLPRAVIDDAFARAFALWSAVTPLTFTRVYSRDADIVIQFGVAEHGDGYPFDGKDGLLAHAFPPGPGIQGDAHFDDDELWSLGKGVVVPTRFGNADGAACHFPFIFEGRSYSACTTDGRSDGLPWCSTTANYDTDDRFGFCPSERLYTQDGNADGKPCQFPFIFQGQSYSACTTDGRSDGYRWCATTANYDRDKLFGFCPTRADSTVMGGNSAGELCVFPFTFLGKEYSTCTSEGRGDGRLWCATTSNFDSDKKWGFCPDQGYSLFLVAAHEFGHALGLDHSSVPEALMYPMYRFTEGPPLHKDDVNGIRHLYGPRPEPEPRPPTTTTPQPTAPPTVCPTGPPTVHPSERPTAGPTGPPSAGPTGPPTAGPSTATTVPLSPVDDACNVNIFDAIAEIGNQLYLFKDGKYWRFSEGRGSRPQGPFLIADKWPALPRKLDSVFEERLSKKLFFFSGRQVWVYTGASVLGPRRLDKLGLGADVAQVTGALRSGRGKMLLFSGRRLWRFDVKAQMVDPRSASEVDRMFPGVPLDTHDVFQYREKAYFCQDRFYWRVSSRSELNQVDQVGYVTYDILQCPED
Chain of enzyme purified from the venom of Crotalus Adamanteus (hemorrhagin) (P34179 whole entry, looked up): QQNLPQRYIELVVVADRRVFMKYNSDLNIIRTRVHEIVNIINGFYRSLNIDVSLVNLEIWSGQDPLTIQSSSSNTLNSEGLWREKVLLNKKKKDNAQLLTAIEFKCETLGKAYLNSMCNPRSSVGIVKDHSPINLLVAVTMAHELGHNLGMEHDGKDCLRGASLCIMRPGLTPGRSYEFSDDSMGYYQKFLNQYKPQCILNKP
Chain of neutrophil collagenase (recombinant human) (P22894 101-467): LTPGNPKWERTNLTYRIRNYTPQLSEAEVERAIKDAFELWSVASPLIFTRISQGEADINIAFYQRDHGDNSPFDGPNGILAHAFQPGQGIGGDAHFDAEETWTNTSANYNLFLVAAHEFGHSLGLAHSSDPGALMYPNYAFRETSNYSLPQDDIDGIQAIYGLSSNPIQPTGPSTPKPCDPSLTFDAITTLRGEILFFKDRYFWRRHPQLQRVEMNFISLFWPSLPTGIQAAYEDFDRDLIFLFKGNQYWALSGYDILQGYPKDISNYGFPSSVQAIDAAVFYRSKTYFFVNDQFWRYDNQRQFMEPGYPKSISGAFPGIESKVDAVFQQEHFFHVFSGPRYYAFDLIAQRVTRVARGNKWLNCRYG

Compound	Effect on number of blood cells that migrate to the inflamed site [1]	IC50 of inhibition of TNF release by cells [2]	IC50 [4] [µM]	% Inhibition of Invasion [8] [%]	IC50 [10] [µM]	IC50 [11] [µM]	IC50 [12] [µM]	also measured
4-MBZ--(L)--Trp--(S)--Cyt--OH [Compound 25]	interfered with the number of blood cells that migrate to the inflamed site	around 0.7 mcg/ml	0.054	–	–	–	–	% Inhibition ([3]; Concentration 5.2 × 10^-5 M): 23%
CC(C)C[C@H](NC(=O)c1ccco1)C(=O)N[C@@H](Cc1c[nH]c2ccccc12)C(=O)O [2-FUR--Leu--Trp]	–	–	–	–	–	–	–	% Inhibition ([3]; Concentration 2.4 × 10^-5 M): 12%; % Inhibition ([5]; Concentration 1.0 × 10^-7 M): 41%; Protection of mice from death by injection of the venom ([6]; dose of 33 mcg/mouse, even when administered after the venom (up to 30 minutes)): capable of protecting the mice from death; Neutralizing the toxic effects of hemorrhagic factors of various snake venom ([6]; mice, compound incubated with the hemorrhagic factors): capable of neutralizing the toxic effects thereof; In vitro inhibition of the metalloproteinase purified from the venom of Crotalus Adamanteus [4]: excellent in vitro inhibitor; % Inhibition ([7]; Concentration 1.0 × 10^-5 M): 22%
CC(C)C[C@H](NC(=O)c1ccccn1)C(=O)N1Cc2[nH]c3ccccc3c2C[C@H]1C(=O)O [Compound 9, PIC--(L)--Leu--(S)--Cyt--OH]	interfered with the number of blood cells that migrate to the inflamed site	around 8 mcg/ml	0.027	94	–	–	–	% Inhibition ([7]; Concentration 1.1 × 10^-5 M): 20%
O=C(N[C@@H](CC1CCCCC1)C(=O)N1Cc2[nH]c3ccccc3c2C[C@H]1C(=O)O)c1ccco1 [Compound 10, 2-FUR--(L)--Cha--(S)--Cyt--OH]	–	around 200 mcg/ml	0.025	99	–	–	–	% Inhibition ([3]; Concentration 2.1 × 10^-5 M): 51%; Residue after 60 Minutes ([9]; 60 minutes): 100%; Residue after 120 Minutes ([9]; 120 minutes): > 95%; % Inhibition ([7]; Concentration 1.1 × 10^-5 M): 32%
CC(C)C[C@H](NC(=O)c1cc2ccccc2o1)C(=O)N1Cc2[nH]c3ccccc3c2C[C@H]1C(=O)O [Compound 15, 2-BZF--(L)--Leu--(S)--Cyt--OH]	–	–	0.04	–	2	8.2	14	–
CC(C)C[C@H](NC(=O)c1cnccn1)C(=O)N1Cc2[nH]c3ccccc3c2C[C@H]1C(=O)O [Compound 18, 2-PZC--(L)--Leu--(S)--Cyt--OH]	interfered with the number of blood cells that migrate to the inflamed site	–	0.21	–	7	5.2	8.4	–
Cc1ccc(C(=O)N[C@@H](CC(C)C)C(=O)N2Cc3[nH]c4ccccc4c3C[C@H]2C(=O)O)cn1 [Compound 22, 6-MNC--(L)--Leu--(S)--Cyt--OH]	–	–	0.11	–	14	3.2	21	% Inhibition ([5]; Concentration 8.0 × 10^-7 M): 47%
FUR--Leu--Cyt	interfered with the number of blood cells that migrate to the inflamed site	–	–	69	–	–	–	–
Z--Pro--Leu--Cyt	interfered with the number of blood cells that migrate to the inflamed site	around 5 mcg/ml	–	70	–	–	–	% Inhibition ([3]; Concentration 1.8 × 10^-5 M): 23%; % Inhibition ([5]; Concentration 1.8 × 10^-7 M): 64%; IC50 of inhibition of TNF release [13]: lower than 1 mcg/ml; Dose capable of blocking 50% of effects ([14]; administered orally): around 50 mcg/Kg; Dose capable of blocking 50% of effects ([14]; injected intravenously): around 50 mcg/Kg; Blocking microhemorrhages induced by histamine ([14]; result in words): extremely powerful in blocking microhemorrhages induced by histamine; % Inhibition ([7]; Concentration 9.0 × 10^-6 M): 32%
